Data: the NIST ThermoML archive (doi:10.1021/acs.jced.7b00002)
± gives the expanded uncertainty stated by the source.

Assay: xn = mol fraction of the nth substance listed
Conditions: 97.6 kPa, Liquid; for viscosity: Capillary tube (Ostwald / Ubbelohde) method; for mass density: Vibrating tube method

CCCCCCCC[n+]1ccn(C)c1.[Cl-] [1-methyl-3-octylimidazolium chloride] + CN(C)C=O
Conditions | mass density [kg/m3] | viscosity [mPa·s]
303.15 K, x1 = 0.119 | 965.57 ± 1.9 | 2.56
303.15 K, x1 = 0.241 | 979.1 ± 2 | 8.9
303.15 K, x1 = 0.321 | 985.99 ± 2 | 18.99
303.15 K, x1 = 0.424 | 992 ± 2 | 49.08
303.15 K, x1 = 0.557 | 996.35 ± 2 | 160.48
303.15 K, x1 = 0.739 | 1002.01 ± 2.1 | 766.79
303.15 K, x1 = 0.858 | 1004.31 ± 2.1 | 1892.8
303.15 K, x1 = 1 | 1006.2 ± 2.2 | 7339.7
308.15 K, x1 = 0.119 | 961.27 ± 1.9 | 2.32
308.15 K, x1 = 0.241 | 975.4 ± 2 | 7.69
308.15 K, x1 = 0.321 | 982.47 ± 2 | 15.91
308.15 K, x1 = 0.424 | 988.63 ± 2 | 39.48
308.15 K, x1 = 0.557 | 993.19 ± 2 | 122.67
308.15 K, x1 = 0.739 | 998.95 ± 2.1 | 536.62
308.15 K, x1 = 0.858 | 1001.36 ± 2.1 | 1258
308.15 K, x1 = 1 | 1003.33 ± 2.1 | 4272.9
313.15 K, x1 = 0.119 | 957.31 ± 1.9 | 2.13
313.15 K, x1 = 0.241 | 971.7 ± 2 | 6.75
313.15 K, x1 = 0.321 | 979.05 ± 2 | 13.51
313.15 K, x1 = 0.424 | 985.26 ± 2 | 32.2
313.15 K, x1 = 0.557 | 989.93 ± 2 | 95.06
313.15 K, x1 = 0.739 | 995.95 ± 2.1 | 381.17
313.15 K, x1 = 0.858 | 998.42 ± 2.1 | 856.69
313.15 K, x1 = 1 | 1000.48 ± 2.1 | 2766.9
318.15 K, x1 = 0.119 | 953.45 ± 1.9 | 1.95
318.15 K, x1 = 0.241 | 967.99 ± 2 | 5.96
318.15 K, x1 = 0.321 | 975.72 ± 2 | 11.56
318.15 K, x1 = 0.424 | 981.9 ± 2 | 26.5
318.15 K, x1 = 0.557 | 986.82 ± 2 | 74.18
318.15 K, x1 = 0.739 | 992.97 ± 2.1 | 277.21
318.15 K, x1 = 0.858 | 995.47 ± 2.1 | 596.05
318.15 K, x1 = 1 | 997.64 ± 2.1 | 1788.6
323.15 K, x1 = 0.119 | 949.36 ± 1.9 | 1.81
323.15 K, x1 = 0.241 | 964.31 ± 1.9 | 5.29
323.15 K, x1 = 0.321 | 972.37 ± 2 | 10
323.15 K, x1 = 0.424 | 978.56 ± 2 | 22.11
323.15 K, x1 = 0.557 | 983.92 ± 2 | 59.06
323.15 K, x1 = 0.739 | 990 ± 2.1 | 206.44
323.15 K, x1 = 0.858 | 992.57 ± 2.1 | 426.48
323.15 K, x1 = 1 | 994.82 ± 2.1 | 1198.7
328.15 K, x1 = 0.119 | 945.25 ± 1.9 | 1.67
328.15 K, x1 = 0.241 | 960.61 ± 1.9 | 4.75
328.15 K, x1 = 0.321 | 969.03 ± 2 | 8.72
328.15 K, x1 = 0.424 | 975.22 ± 2 | 18.67
328.15 K, x1 = 0.557 | 980.8 ± 2 | 47.65
328.15 K, x1 = 0.739 | 987.03 ± 2.1 | 156.59
328.15 K, x1 = 0.858 | 989.7 ± 2.1 | 312.38
328.15 K, x1 = 1 | 992 ± 2.1 | 828.3
333.15 K, x1 = 0.119 | 941.11 ± 1.9 | 1.56
333.15 K, x1 = 0.241 | 956.95 ± 1.9 | 4.25
333.15 K, x1 = 0.321 | 965.62 ± 2 | 7.67
333.15 K, x1 = 0.424 | 971.88 ± 2 | 15.92
333.15 K, x1 = 0.557 | 977.65 ± 2 | 38.97
333.15 K, x1 = 0.739 | 984.05 ± 2 | 120.9
333.15 K, x1 = 0.858 | 986.83 ± 2.1 | 233.56
333.15 K, x1 = 1 | 989.17 ± 2.1 | 588.69
338.15 K, x1 = 0.119 | 936.97 ± 1.9 | 1.45
338.15 K, x1 = 0.241 | 953.32 ± 1.9 | 3.85
338.15 K, x1 = 0.321 | 962.16 ± 1.9 | 6.79
338.15 K, x1 = 0.424 | 968.56 ± 2 | 13.71
338.15 K, x1 = 0.557 | 974.48 ± 2 | 32.38
338.15 K, x1 = 0.739 | 981.09 ± 2 | 94.93
338.15 K, x1 = 0.858 | 983.97 ± 2.1 | 176.82
338.15 K, x1 = 1 | 986.38 ± 2.1 | 426.28
343.15 K, x1 = 0.119 | 932.83 ± 1.9 | 1.36
343.15 K, x1 = 0.241 | 949.69 ± 1.9 | 3.5
343.15 K, x1 = 0.321 | 958.67 ± 1.9 | 6.06
343.15 K, x1 = 0.424 | 965.24 ± 2 | 11.91
343.15 K, x1 = 0.557 | 971.56 ± 2 | 27.13
343.15 K, x1 = 0.739 | 978.13 ± 2 | 75.65
343.15 K, x1 = 0.858 | 981.1 ± 2.1 | 137.16
343.15 K, x1 = 1 | 983.63 ± 2.1 | 316.66
348.15 K, x1 = 0.119 | 928.69 ± 1.9 | 1.27
348.15 K, x1 = 0.241 | 946.02 ± 1.9 | 3.2
348.15 K, x1 = 0.321 | 955.18 ± 1.9 | 5.43
348.15 K, x1 = 0.424 | 961.92 ± 2 | 10.41
348.15 K, x1 = 0.557 | 968.34 ± 2 | 22.93
348.15 K, x1 = 0.739 | 975.19 ± 2 | 61.29
348.15 K, x1 = 0.858 | 978.24 ± 2.1 | 108.17
348.15 K, x1 = 1 | 980.88 ± 2.1 | 237.14
353.15 K, x1 = 0.119 | 924.55 ± 1.9 | 1.2
353.15 K, x1 = 0.241 | 942.33 ± 1.9 | 2.93
353.15 K, x1 = 0.321 | 951.69 ± 1.9 | 4.9
353.15 K, x1 = 0.424 | 958.62 ± 2 | 9.16
353.15 K, x1 = 0.557 | 965.07 ± 2 | 19.6
353.15 K, x1 = 0.739 | 972.25 ± 2 | 50.08
353.15 K, x1 = 0.858 | 975.39 ± 2 | 86.03
353.15 K, x1 = 1 | 978.13 ± 2.1 | 181.41
